Test results: the supplement of paper PMC10307832

Tests used:
Assay in all cases: relative viability (nuclei count vs DMSO), 5 days (fraction); higher = more cells survive
[1] = compound: C=CC(=O)N1CCC[C@@H](n2nc(-c3ccc(Oc4ccccc4)cc3)c3c(N)ncnc32)C1 [Ibrutinib] + NC(=O)Nc1cc(-c2cccc(F)c2)sc1C(=O)N[C@H]1CCCNC1 [AZD7762] (partner 0.2 µM)
In short: (§1)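 Lung cancer cell lines were seeded in 1536-well plates and dosed by pin tool the next day, with either a single drug or a fixed anchor-drug dose combined with five library-drug doses (not always all listed) spaced in √10 steps. Five days later, one step fixed the cells and stained their nuclei (final 0.05% Triton X-100, 1% formaldehyde, 1 ug/ml Hoechst), and nuclei were counted on 4× images. Relative viability is the nuclei count in treated wells divided by the count in vehicle wells, and each value is the median of duplicate plates.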

[2] = compound: C=CC(=O)N1CCC[C@@H](n2nc(-c3ccc(Oc4ccccc4)cc3)c3c(N)ncnc32)C1 [Ibrutinib] + O=C(CCCCCCC(=O)Nc1ccccc1)NO [Vorinostat] (partner 1 µM)
In short: as §1

[3] = compound: C=CC(=O)N1CCC[C@@H](n2nc(-c3ccc(Oc4ccccc4)cc3)c3c(N)ncnc32)C1 [Ibrutinib] + O=C(c1cc(Cc2n[nH]c(=O)c3ccccc23)ccc1F)N1CCN(C(=O)C2CC2)CC1 [Olaparib] (partner 8 µM)
In short: as §1

[4] = compound: C=CC(=O)Nc1cc(-n2c(=O)ccc3cnc4ccc(-c5ccc(NS(C)(=O)=O)cc5)cc4c32)ccc1C [BMX-IN-1] + O=C(CCCCCCC(=O)Nc1ccccc1)NO [Vorinostat] (partner 1 µM)
In short: as §1

Cell Line	relative viability ([1]; first compound 0.01581 µM)	relative viability ([1]; first compound 0.05 µM)	relative viability ([1]; first compound 0.1581 µM)	relative viability ([1]; first compound 0.5 µM)	relative viability ([2]; first compound 0.005 µM)	relative viability ([2]; first compound 0.01581 µM)	relative viability ([2]; first compound 0.05 µM)	relative viability ([2]; first compound 0.1581 µM)	relative viability ([2]; first compound 0.5 µM)	relative viability ([3]; first compound 0.005 µM)	relative viability ([3]; first compound 0.01581 µM)	relative viability ([3]; first compound 0.05 µM)	relative viability ([3]; first compound 0.1581 µM)	relative viability ([3]; first compound 0.5 µM)	relative viability ([4]; first compound 0.02 µM)	relative viability ([4]; first compound 0.2 µM)	relative viability ([4]; first compound 0.6325 µM)	relative viability ([4]; first compound 2 µM)	relative viability ([1]; first compound 0.005 µM)
EPLC-272H	0.232	0.269	0.241	0.191	0.248	0.4	0.31	0.597	0.401	0.708	0.597	0.49	0.79	0.455	0.351	0.288	0.417	0.383	–
SK-LU-1	–	–	–	–	0.883	0.715	0.765	0.813	0.766	0.411	0.426	0.447	0.722	0.371	0.719	0.969	0.797	0.69	–
PC-3 [JPC-3]	0.588	0.478	–	0.445	0.664	0.774	0.497	0.289	0.399	1.21	0.996	0.93	1.29	0.523	0.953	0.831	0.916	0.766	0.631
ChaGo-K-1	0.798	0.894	0.833	0.838	0.752	0.766	0.688	0.708	0.75	0.445	0.421	0.424	0.436	0.426	0.91	0.984	0.835	0.768	0.85
NCI-H3122	0.946	1.03	0.885	0.992	1.05	0.944	0.874	0.858	1.06	0.774	0.6	0.582	0.644	0.695	0.938	1.1	0.902	1.14	1.16
NCI-H1703	0.126	–	0.148	0.19	–	–	–	–	–	0.317	0.289	0.449	0.4	0.327	–	–	–	–	–
NCI-H2126	0.966	0.962	0.986	0.958	0.454	0.748	0.644	0.725	0.56	0.879	0.899	0.88	0.905	0.747	0.829	0.697	0.864	0.786	0.776
NCI-H1993	0.732	0.739	0.751	0.557	0.443	0.759	1.13	1.01	0.486	0.849	0.939	1.36	1.15	0.836	0.767	0.9	0.85	0.898	0.39
NCI-H1793	0.33	0.408	0.85	0.13	0.405	0.643	0.47	0.518	0.367	0.669	0.562	0.582	0.833	0.4	0.998	0.563	0.856	0.849	0.395
NCI-H441	1.15	1.22	1.28	0.952	0.789	0.694	1.05	0.823	0.919	0.794	0.728	0.652	0.768	0.567	0.691	1.03	0.903	0.778	1.18
NCI-H661	–	–	–	–	0.746	0.761	0.752	0.758	0.752	0.716	0.706	0.719	0.773	0.579	0.878	0.877	0.857	0.743	–
COR-L 105	–	–	–	–	0.709	0.659	0.526	0.833	0.388	0.663	0.683	0.717	0.755	0.46	0.943	0.886	0.996	0.716	–
NCI-H2023	–	–	–	–	0.565	0.6	0.48	0.918	0.49	0.492	0.528	0.457	0.516	0.542	0.726	0.742	0.654	0.105	–
UMC-11	–	–	–	–	0.39	0.376	0.454	0.345	–	0.338	0.392	0.538	0.663	0.377	0.343	0.417	0.336	0.332	–
COR-L23	–	–	–	–	0.326	0.51	0.522	0.477	0.566	0.398	0.31	0.363	0.385	0.327	0.448	0.524	0.635	0.421	–
NCI-H1650	–	–	–	–	0.579	0.589	0.422	0.71	0.535	0.73	0.836	0.805	0.822	0.754	0.501	0.452	0.571	0.522	–
NCI-H2009	–	–	–	–	0.728	0.705	0.764	0.759	0.742	0.754	0.671	0.771	0.802	0.738	0.782	0.798	0.746	0.839	–
IA-LM	–	–	–	–	1.04	0.864	0.918	–	0.822	0.881	0.891	0.797	0.936	1.04	0.797	0.807	1.03	0.722	–
EBC-1	–	–	–	–	–	–	–	–	–	0.718	0.645	0.606	0.737	0.797	–	–	–	–	–
NCI-H520	–	–	–	–	0.821	0.665	0.715	0.757	0.719	0.417	0.334	0.377	0.298	0.35	0.8	0.718	0.666	0.696	–
SW 1573	–	–	–	–	–	0.793	0.694	1.06	1.06	0.57	0.401	0.51	0.456	0.485	0.845	0.98	0.709	0.0976	–
